Laboratory results: US20140065649A1, “TEST SYSTEMS AND METHODS FOR IDENTIFYING AND CHARACTERISING LIPID LOWERING DRUGS” (Sanofi, priority 2011, published 2014)
“Also recorded” adds a separate entry of the source.

Columns and labels:
PCSK9 = conditions: in hamsters; cited from earlier work
[1] = Study 1: serum 316P levels by sandwich ELISA; assay type: in vivo, Mesocricetus auratus; conditions: Study 1, 24-hour time point, 1, 3, and 10 mg/kg
[2] = tested on: normolipidemic male Syrian hamsters; test: Study 1: serum lipids after single s.c. injection in normolipidemic hamsters; assay type: in vivo, Mesocricetus auratus; conditions: for decrease in TC: Day 7
[3] = tested on: normolipidemic male Syrian hamsters; test: Study 2: safety parameters, body weight, liver weight and liver lipids
Description: (§1) Male Syrian hamsters (strain RjHan: AURA in Study 1 and Bio™ F1B in Study 2), weighing between 90 and 100 g, were purchased from Janvier, Germany, and were allowed to acclimatize for a period of 7 days before entering the study.
(§2) The investigation was divided into 2 studies. […] For each study, body weight and food consumption (weight changes in chow) were measured once a week, starting 1 week before dosing. […] In Study 1, samples were taken on Days −6, 1, 7, 14, 21, and 28; in Study 2, samples were taken on Days −7, 0, 3, and 7. Serum was obtained after centrifugation using Serum-Gel® tubes (Sarstedt, Nümbrecht, Germany).
(§3) At the end of each study, animals were sacrificed in a nonfasted state and liver was immediately weighed and shock frozen on dry ice.
(§4) All data are expressed as means±standard error of the mean (SEM) and were tested for normality and variance homogeneity before analysis. […] In Study 1, the vehicle-treated control versus treatment-naive control group was analyzed separately using 2-way ANOVA followed by the Dunnett test. A P value of ≦0.05 was considered statistically significant. Food consumption and safety parameters (AST, ALT, AP, and CK) were descriptively evaluated.

[4] = biological target: hPCSK9 D238 mutated (D238R) (Homo sapiens, UniProt Q8NBP7, D238R); conditions: cited from earlier work
Sequence of hPCSK9 D238 mutated (D238R) (Q8NBP7 153-692 D238R): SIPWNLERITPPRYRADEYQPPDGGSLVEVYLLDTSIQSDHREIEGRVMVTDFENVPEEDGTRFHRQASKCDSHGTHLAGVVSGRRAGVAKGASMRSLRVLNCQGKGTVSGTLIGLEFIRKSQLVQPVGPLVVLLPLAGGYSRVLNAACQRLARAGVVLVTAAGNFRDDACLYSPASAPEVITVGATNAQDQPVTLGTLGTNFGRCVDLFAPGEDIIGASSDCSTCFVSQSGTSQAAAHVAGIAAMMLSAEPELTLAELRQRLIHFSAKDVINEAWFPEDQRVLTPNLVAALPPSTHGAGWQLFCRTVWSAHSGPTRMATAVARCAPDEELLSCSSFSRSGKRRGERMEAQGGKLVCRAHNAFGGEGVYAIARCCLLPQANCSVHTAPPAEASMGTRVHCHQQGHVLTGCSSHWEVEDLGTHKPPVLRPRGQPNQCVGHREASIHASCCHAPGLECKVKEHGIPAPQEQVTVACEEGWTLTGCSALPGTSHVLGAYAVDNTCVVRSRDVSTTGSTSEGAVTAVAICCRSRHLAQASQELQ

hPCSK9 = hPCSK9 (Homo sapiens, UniProt Q8NBP7); conditions: cited from earlier work
Sequence of hPCSK9 (Q8NBP7 153-692): as the sequence (Q8NBP7 153-692 D238R) above, with R86D counted along it

[5] = tested on: normolipidemic male Syrian hamsters; test: Study 2: serum lipids, atorvastatin twice daily with and without single s.c. 316P in normolipidemic hamsters; assay type: in vivo, Mesocricetus auratus
[6] = tested on: normolipidemic male Syrian hamsters; conditions: Study 1, single s.c. 1, 3, or 10 mg/kg, data not shown
[7] = tested on: normolipidemic male Syrian hamsters; conditions: in vivo, sc
Description: as §1, §2, §3, §4

humans = conditions: human phase 1 study, interim analysis, single i.v. administration; cited from earlier work
[8] = tested on: hepatic low density lipoprotein receptor (LDLR) protein; test: Study 2: hepatic LDLR levels by Western blot; assay type: in vivo, Mesocricetus auratus; conditions: Study 2, Western blot; 316P 10 mg/kg, atorvastatin 2×20 mg/kg
[9] = tested on: PCSK9-mediated down-regulation of LDL uptake via LDLR in HepG2 cells; conditions: cited from earlier work
dyslipidemic hamsters = conditions: cited from earlier work
[10] = tested on: human HepG2 or Huh7 cells; conditions: cited from earlier work
[11] = D238 mutated vs unmutated hPCSK9
[12] = Study 2, 316P single s.c. 10 mg/kg alone, sustained until Day 7
[13] = Study 2, atorvastatin alone 10 or 20 mg/kg p.o. twice daily, after 7 days

316P: fully human monoclonal anti-PCSK9 antibody comprising HCVR SEQ ID NO: 9 and LCVR SEQ ID NO: 10 [Antibody 316P]
binding affinity for PCSK9 (PCSK9): high binding affinity | serum 316P concentration vs dose [1]: proportional to theoretical dosing levels | reduction in HDL-C ([2]; Study 1, data not shown): statistically significant but less pronounced than the effect on LDL-C | serum TG levels ([2]; Study 1, every dose throughout the study): remained relatively constant | decrease in TC ([2]; Study 1, single s.c. 1 mg/kg): 9% | maximal effect on LDL-C (reduction) ([2]; Study 1, single s.c. 1 mg/kg, after Day 1, vs PBS control): 17% | decrease in TC ([2]; Study 1, single s.c. 3 mg/kg): 17% | maximal effect on LDL-C (reduction) ([2]; Study 1, single s.c. 3 mg/kg, after Day 7, vs PBS control): 27% | decrease in TC ([2]; Study 1, single s.c. 10 mg/kg): 28% | maximal effect on LDL-C (reduction) ([2]; Study 1, single s.c. 10 mg/kg, after Day 7, vs PBS control): 59% | duration of dose-dependent decrease in LDL-C (TC and LDL-C) ([2]; Study 1, single s.c. 1, 3, or 10 mg/kg): more than 2 weeks | day on which LDL-C levels reach PBS control-treated levels (0% reduction) ([2]; Study 1, single s.c. injection): 28 days | HDL-C levels ([2]; highest dose 10 mg/kg, data not shown): significant reduction | tolerability ([3]; Study 2): well tolerated | decrease of T1/2 [4, 11]: > 30 fold | reduction in binding affinity [4, 11]: > 400 fold | T1/2 ([4]; D238 mutated): ~1 min | Kd ([4]; D238 mutated, read-out: KD (binding affinity)): ~410 nM | binding affinity for PCSK9 (hPCSK9; in humans): high binding affinity | T1/2 (hPCSK9; unmutated hPCSK9): ~37 min | Kd (hPCSK9; unmutated hPCSK9, read-out: KD (binding affinity)): ~1 nM | reduction in HDL-C ([5]; Study 2, 316P 10 mg/kg (groups not specified), data not shown): statistically significant but less pronounced than the effect on LDL-C | effect on serum LDL-C [5, 12]: potent effect | effect on serum TC [5, 12]: potent effect | effects on safety parameters, relative liver weight, hepatic cholesterol, TG, phospholipid concentration [6]: no biologically relevant effects | effects on relative liver weight, hepatic cholesterol, TG or phospholipid concentration [7]: no clinically relevant effects | LDL-C reduction (humans): exceeded 60% | duration of LDL-C reduction (humans): 30 days | level of hepatic LDLR expression compared with the PBS control groups [8]: 149% | level of hepatic LDLR protein versus PBS control [8]: 1.5 fold | effect on PCSK9-mediated down-regulation of LDL uptake via LDLR [9]: antagonizes

CC(C)c1c(C(=O)Nc2ccccc2)c(-c2ccccc2)c(-c2ccc(F)cc2)n1CC[C@@H](O)C[C@@H](O)CC(=O)O [atorvastatin]
ALT levels ([3]; Study 2, atorvastatin 2×10 or 20 mg/kg): slight, clinically insignificant increase; also recorded: biologically relevant increase | reduction in TG levels ([5]; Study 2, atorvastatin 2×20 mg/kg, after 7 days of treatment): 23% | reduction of serum TG levels ([5]; Study 2, atorvastatin alone 10 mg/kg or 20 mg/kg p.o. twice daily, after 7 days): 23% | effect on serum HDL-C [5, 13]: no significant effect | effect on serum LDL-C [5, 13]: no significant effect | effect on serum TC [5, 13]: no significant effect

CC(C)c1nc(N(C)S(C)(=O)=O)nc(-c2ccc(F)cc2)c1/C=C/[C@@H](O)C[C@@H](O)CC(=O)O [rosuvastatin]
hepatic LDLR levels (dyslipidemic hamsters): reduced | serum LDL-C levels (dyslipidemic hamsters): slightly increased | effect on the level of HNF1 alpha [10]: no appreciable effect | increase in LDLR mRNA and protein [10]: ≈ 2 fold | increase in PCSK9 mRNA and protein [10]: ≈ 3 fold
